Reference: patent US20230245725A1, “Means and Methods for the Prediction of Amyloid Core Sequences” (VIB VZW, priority 2020, published 2023)

Key:
Apo-AI = target: T1, Apo-AI (Homo sapiens, UniProt P02647); assay: Th-T kinetics and endpoint fluorescence analysis of ApoA-I APR variant peptides; format: biochemical; conditions: triplicate
T1 construct: Endpoint fluorescence analysis; made in house; host or cells: solid phase peptide synthesis (no expression host)
Description: The Th-T kinetics (see FIGS. 12A and 12B) and the endpoint fluorescence analysis (see FIG. 11) were performed in triplicate for the peptides depicted in Table 5.
The Th-T kinetics (see FIGS. 13A and 13B) and the endpoint fluorescence analysis (see FIG. 11) were performed in triplicate for the peptides depicted in Table 6.
(§1) Amyloid aggregation was monitored using fluorescent spectroscopy binding assays. Th-T (Sigma) or pFTAA (Ebba Biotech AB) was added in half-area black 96-well microplates (Corning, USA) at a final concentration of 25 μM and 0.5 μM, respectively. Fluorescence intensity was measured in replicates (n=6) using a PolarStar Optima and a FluoStar Omega plate reader (BMG Labtech, Germany), equipped with an excitation filter at 440 nm and emission filters at 480 nm and 510 nm, respectively.

[1] = Amyloid-forming properties of the peptide screen (overall call from Th-T, pFTAA, TEM); format: physicochemical; conditions: overall amyloid-forming call
From the text: In the interest of improving the current description of the familiar amyloidogenic protein dataset, we selected and synthesised a subset of 96 peptides corresponding to strong aggregation prone regions identified in these proteins by Cordax. Apart of prediction strength, the peptide screen was also selectively constructed to ensure broad sequence variability and a wide distribution on the proteins of the dataset, with a preference for longer entries defined by inadequate previous characterisation. Peptide sequences were cross-checked and filtered to exclude overlapping sequences with previously identified amyloid regions and WALTZ-DB (see Table 2). The remaining selection of 96 peptides were synthesized using standard solid phase synthesis and their amyloid-forming properties were initially examined using Thioflavin-T (Th-T) or pFTAA binding, following rotating incubation for 5 days at room temperature. The binding assays are complementary, as Th-T and pFTAA are opposingly charged molecules, which increases the amyloid identification rate by overcoming cases of dye-specific failure to bind to amyloid surfaces based on charge repulsion. Under these conditions, 66 peptides successfully bind the specific dyes (FIGS. 3a & 3b) by forming fibrils with typical amyloid morphologies and properties that were verified using transmission electron microscopy (FIG. 3c) and Congo red staining for selected cases (FIG. 3d). As these dyes are known to yield false negatives, in particular for short peptides, all dye-negative peptides were further investigated using electron microscopy. During this scan, we recovered 19 additional sequences that were capable of forming sparse amyloid-like fibrils with shorter lengths (see FIG. 8). […]
(§2) Peptides derived from the Cordax validation set were synthesized using an Intavis Multipep RSi solid phase peptide synthesis robot. Peptide purity (>90%) was evaluated using RP-HPLC purification protocols and peptides were stored as ether precipitates (−20° C.). Peptide stocks were initially treated with 1,1,1,3,3,3-hexafluoro-isopropanol (HFIP) (Merck), then dissolved in traces of dimethyl sulfoxide (DMSO) (Merck) (<5%), filtered through 0.2 μm filters and finally in milli-Q water to reach a final concentration of 200 μM or up to 1 mM for dye-negative peptides. Dithiothreitol (DTT) (1 mM) was included in solutions of peptides spanning cysteine or methionine residues. All peptides were incubated at room temperature for a period of 5 days on a rotating wheel.
as §1
(§3) Peptide solutions were incubated for 5 days at room temperature in order to form mature amyloid-like fibrils. Suspensions (5 μL) of each peptide solution were added on 400-mesh carbon-coated copper grids (Agar Scientific Ltd., England), following a glow-discharging step of 30 s to improve sample adsorption. Grids were washed with milli-Q water and negatively stained using uranyl acetate (2% w/v in milli-Q water). Grids were examined with a JEM-1400 120 kV transmission electron microscope (JEOL, Japan), operated at […].

[2] = Thioflavin-T binding assay of synthetic peptides; format: physicochemical; conditions: 200 μM peptide, rotation 5 days, room temperature; Th-T 25 μM
From the text: (§4) In the interest of improving the current description of the familiar amyloidogenic protein dataset, we selected and synthesised a subset of 96 peptides corresponding to strong aggregation prone regions identified in these proteins by Cordax. Apart of prediction strength, the peptide screen was also selectively constructed to ensure broad sequence variability and a wide distribution on the proteins of the dataset, with a preference for longer entries defined by inadequate previous characterisation. Peptide sequences were cross-checked and filtered to exclude overlapping sequences with previously identified amyloid regions and WALTZ-DB (see Table 2). The remaining selection of 96 peptides were synthesized using standard solid phase synthesis and their amyloid-forming properties were initially examined using Thioflavin-T (Th-T) or pFTAA binding, following rotating incubation for 5 days at room temperature. The binding assays are complementary, as Th-T and pFTAA are opposingly charged molecules, which increases the amyloid identification rate by overcoming cases of dye-specific failure to bind to amyloid surfaces based on charge repulsion. Under these conditions, 66 peptides successfully bind the specific dyes (FIGS. 3a & 3b) by forming fibrils with typical amyloid morphologies and properties that were verified using transmission electron microscopy (FIG. 3c) and Congo red staining for selected cases (FIG. 3d). As these dyes are known to yield false negatives, in particular for short peptides, all dye-negative peptides were further investigated using electron microscopy. During this scan, we recovered 19 additional sequences that were capable of forming sparse amyloid-like fibrils with shorter lengths (see FIG. 8).
as §2, §1

[3] = pFTAA binding assay of synthetic peptides; format: physicochemical; conditions: 200 μM peptide, rotation 5 days, room temperature; pFTAA 0.5 μM
From the text: as §4, §2, §1

[4] = Transmission electron microscopy of peptide fibrils; format: physicochemical; conditions: amyloid-like fibrils after 5 days at room temperature
From the text: as §4, §3

Substance: LWTVYV (Capping peptide) [SEQ ID NO: 175, candidate capping peptide variant of ApoA-I APR]
- capping peptide: prevent the aggregation of Apo-AI (Apo-AI): most performant capping peptides

Substance: LLTVYV (Aggregation inducer) [SEQ ID NO: 178, candidate aggregation inducing variant of ApoA-I APR]
- induce the aggregation of Apo-AI (Apo-AI): most performant peptides which can induce the aggregation of Apo-AI

Substance: LAIVYV (Aggregation inducer) [SEQ ID NO: 182, candidate aggregation inducing variant of ApoA-I APR]
- induce the aggregation of Apo-AI (Apo-AI): most performant peptides which can induce the aggregation of Apo-AI

Substance: YDLHYW
- Amyloid [1]: ●
- Th-T Binding [2]: ●
- pFTAA Binding [3]: ●
- TEM [4]: ●

Substance: LYTVYV (Capping peptide) [SEQ ID NO: 176, candidate capping peptide variant of ApoA-I APR]
- capping peptide: prevent the aggregation of Apo-AI (Apo-AI): most performant capping peptides

Substance: NFSIRY
- Amyloid [1]: ●
- Th-T Binding [2]: ●
- pFTAA Binding [3]: ●
- TEM [4]: ●
